Assay results: PubChem BioAssay (NCI)
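Cells were grown in 96-well plates and exposed to each compound for 48 hours at five concentrations; endpoints were interpolated linearly between bracketing concentrations, or set to the highest concentration if not reached. The concentration for 50% growth inhibition is given as GI50. At the TGI there is no net growth.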

Legend:
Test in all cases: inhibition of tumour cell growth, NCI panel, 48 h
SK-MEL-5 melanoma = tested on: SK-MEL-5 melanoma
T-47D breast = tested on: T-47D breast
UACC-257 melanoma = tested on: UACC-257 melanoma
SN12C renal = tested on: SN12C renal
PC-3 prostate = tested on: PC-3 prostate
SK-MEL-2 melanoma = tested on: SK-MEL-2 melanoma
MDA-MB-435 = tested on: MDA-MB-435
M14 melanoma = tested on: M14 melanoma
SF-539 CNS = tested on: SF-539 CNS
MCF7 breast = tested on: MCF7 breast
SF-295 CNS = tested on: SF-295 CNS
HT29 colon = tested on: HT29 colon
OVCAR-5 ovarian = tested on: OVCAR-5 ovarian
A498 renal = tested on: A498 renal
SNB-19 CNS = tested on: SNB-19 CNS
MDA-MB-231 breast = tested on: MDA-MB-231 breast
HCT-116 colon = tested on: HCT-116 colon
TK-10 renal = tested on: TK-10 renal
NCI/ADR-RES ovarian = tested on: NCI/ADR-RES ovarian
OVCAR-8 ovarian = tested on: OVCAR-8 ovarian
CAKI-1 renal = tested on: CAKI-1 renal
SR leukemia = tested on: SR leukemia
RXF 393 renal = tested on: RXF 393 renal
NCI-H23 lung = tested on: NCI-H23 lung
SF-268 CNS = tested on: SF-268 CNS
OVCAR-3 ovarian = tested on: OVCAR-3 ovarian
HL-60(TB) leukemia = tested on: HL-60(TB) leukemia
U251 CNS = tested on: U251 CNS
SK-MEL-28 melanoma = tested on: SK-MEL-28 melanoma
OVCAR-4 ovarian = tested on: OVCAR-4 ovarian
HOP-92 NSCLC = tested on: HOP-92 NSCLC
MALME-3M melanoma = tested on: MALME-3M melanoma
ACHN renal = tested on: ACHN renal
786-0 renal = tested on: 786-0 renal
NCI-H460 lung = tested on: NCI-H460 lung
HCC-2998 colon = tested on: HCC-2998 colon
SNB-75 CNS = tested on: SNB-75 CNS
MOLT-4 leukemia = tested on: MOLT-4 leukemia
DU-145 prostate = tested on: DU-145 prostate
EKVX NSCLC = tested on: EKVX NSCLC
BT-549 breast = tested on: BT-549 breast
IGROV1 ovarian = tested on: IGROV1 ovarian
KM12 colon = tested on: KM12 colon
UACC-62 melanoma = tested on: UACC-62 melanoma
LOX IMVI melanoma = tested on: LOX IMVI melanoma
UO-31 renal = tested on: UO-31 renal
HS 578T breast = tested on: HS 578T breast
HOP-62 NSCLC = tested on: HOP-62 NSCLC
SK-OV-3 ovarian = tested on: SK-OV-3 ovarian
COLO 205 colon = tested on: COLO 205 colon
CCRF-CEM leukemia = tested on: CCRF-CEM leukemia
HCT-15 colon = tested on: HCT-15 colon
RPMI-8226 leukemia = tested on: RPMI-8226 leukemia
SW-620 colon = tested on: SW-620 colon
NCI-H226 lung = tested on: NCI-H226 lung
A549 NSCLC = tested on: A549 NSCLC
NCI-H522 lung = tested on: NCI-H522 lung

CCN1CCN(CC(=O)N2c3cccc4cccc(c34)N(C(=O)CN3CCN(CC)CC3)C2c2cn(-c3ccccc3)nc2-c2cccc([N+](=O)[O-])c2)CC1
GI50 (SK-MEL-5 melanoma): 1.75 µM | TGI (SK-MEL-5 melanoma): 3.21 µM | GI50 (T-47D breast): 1.66 µM | TGI (T-47D breast): 3.7 µM | GI50 (UACC-257 melanoma): 1.85 µM | TGI (UACC-257 melanoma): 3.68 µM | GI50 (SN12C renal): 1.49 µM | TGI (SN12C renal): 3.01 µM | GI50 (PC-3 prostate): 1.48 µM | TGI (PC-3 prostate): 3.14 µM | GI50 (SK-MEL-2 melanoma): 1.84 µM | TGI (SK-MEL-2 melanoma): 3.58 µM | GI50 (MDA-MB-435): 1.86 µM | TGI (MDA-MB-435): 3.54 µM | GI50 (M14 melanoma): 1.69 µM | TGI (M14 melanoma): 3.46 µM | GI50 (SF-539 CNS): 1.56 µM | TGI (SF-539 CNS): 2.94 µM | GI50 (MCF7 breast): 1.62 µM | TGI (MCF7 breast): 3.24 µM | GI50 (SF-295 CNS): 1.84 µM | TGI (SF-295 CNS): 3.44 µM | GI50 (HT29 colon): 1.74 µM | TGI (HT29 colon): 3.84 µM | GI50 (OVCAR-5 ovarian): 1.8 µM | TGI (OVCAR-5 ovarian): 3.45 µM | GI50 (A498 renal): 0.49 µM | TGI (A498 renal): 2.11 µM | GI50 (SNB-19 CNS): 1.66 µM | TGI (SNB-19 CNS): 3.42 µM | GI50 (MDA-MB-231 breast): 1.42 µM | TGI (MDA-MB-231 breast): 2.88 µM | GI50 (HCT-116 colon): 1.27 µM | TGI (HCT-116 colon): 2.83 µM | GI50 (TK-10 renal): 1.88 µM | TGI (TK-10 renal): 3.69 µM | GI50 (NCI/ADR-RES ovarian): 1.98 µM | TGI (NCI/ADR-RES ovarian): 4.16 µM | GI50 (OVCAR-8 ovarian): 2.06 µM | TGI (OVCAR-8 ovarian): 5.01 µM | GI50 (CAKI-1 renal): 1.4 µM | TGI (CAKI-1 renal): 2.9 µM | GI50 (SR leukemia): 0.267 µM | TGI (SR leukemia): 0.8 µM | GI50 (RXF 393 renal): 1.62 µM | TGI (RXF 393 renal): 3.09 µM | GI50 (NCI-H23 lung): 1.81 µM | TGI (NCI-H23 lung): 3.59 µM | GI50 (SF-268 CNS): 1.67 µM | TGI (SF-268 CNS): 3.47 µM | GI50 (OVCAR-3 ovarian): 1.63 µM | TGI (OVCAR-3 ovarian): 3.24 µM | GI50 (HL-60(TB) leukemia): 1.93 µM | TGI (HL-60(TB) leukemia): 3.85 µM | GI50 (U251 CNS): 1.53 µM | TGI (U251 CNS): 3.21 µM | GI50 (SK-MEL-28 melanoma): 1.75 µM | TGI (SK-MEL-28 melanoma): 3.2 µM | GI50 (OVCAR-4 ovarian): 1.79 µM | TGI (OVCAR-4 ovarian): 3.71 µM | GI50 (HOP-92 NSCLC): 0.671 µM | TGI (HOP-92 NSCLC): 2.49 µM | GI50 (MALME-3M melanoma): 1.63 µM | TGI (MALME-3M melanoma): 3.13 µM | GI50 (ACHN renal): 1.64 µM | TGI (ACHN renal): 3.08 µM | GI50 (786-0 renal): 1.66 µM | TGI (786-0 renal): 3.17 µM | GI50 (NCI-H460 lung): 1.51 µM | TGI (NCI-H460 lung): 3.14 µM | GI50 (HCC-2998 colon): 1.83 µM | TGI (HCC-2998 colon): 3.43 µM | GI50 (SNB-75 CNS): 1.13 µM | TGI (SNB-75 CNS): 2.48 µM | GI50 (MOLT-4 leukemia): 1.69 µM | TGI (MOLT-4 leukemia): 5.06 µM | GI50 (DU-145 prostate): 1.96 µM | TGI (DU-145 prostate): 4.03 µM | GI50 (EKVX NSCLC): 1.79 µM | TGI (EKVX NSCLC): 3.79 µM | GI50 (BT-549 breast): 1.67 µM | TGI (BT-549 breast): 3.24 µM | GI50 (IGROV1 ovarian): 1.62 µM | TGI (IGROV1 ovarian): 3.28 µM | GI50 (KM12 colon): 1.72 µM | TGI (KM12 colon): 3.28 µM | GI50 (UACC-62 melanoma): 1.73 µM | TGI (UACC-62 melanoma): 3.2 µM | GI50 (LOX IMVI melanoma): 1.62 µM | TGI (LOX IMVI melanoma): 3.11 µM | GI50 (UO-31 renal): 1.34 µM | TGI (UO-31 renal): 2.73 µM | GI50 (HS 578T breast): 1.81 µM | TGI (HS 578T breast): 4.17 µM | GI50 (HOP-62 NSCLC): 1.63 µM | TGI (HOP-62 NSCLC): 3.28 µM | GI50 (SK-OV-3 ovarian): 1.9 µM | TGI (SK-OV-3 ovarian): 3.74 µM | GI50 (COLO 205 colon): 1.72 µM | TGI (COLO 205 colon): 3.39 µM | GI50 (CCRF-CEM leukemia): 1.15 µM | TGI (CCRF-CEM leukemia): 3.51 µM | GI50 (HCT-15 colon): 1.46 µM | TGI (HCT-15 colon): 2.98 µM | GI50 (RPMI-8226 leukemia): 1.59 µM | TGI (RPMI-8226 leukemia): 3.94 µM | GI50 (SW-620 colon): 1.73 µM | TGI (SW-620 colon): 3.41 µM

CCCC(=O)OC1C(CO)OC(n2cc(F)c(=O)[nH]c2=O)C1F (stereo not drawn)
TGI (SK-MEL-5 melanoma): > 100 µM | TGI (T-47D breast): > 100 µM | TGI (UACC-257 melanoma): > 100 µM | TGI (SN12C renal): > 100 µM | TGI (PC-3 prostate): > 100 µM | TGI (SK-MEL-2 melanoma): > 100 µM | TGI (MDA-MB-435): > 100 µM | TGI (SF-539 CNS): > 100 µM | TGI (MCF7 breast): > 100 µM | TGI (SF-295 CNS): > 100 µM | TGI (HT29 colon): > 100 µM | TGI (OVCAR-5 ovarian): > 100 µM | TGI (A498 renal): > 100 µM | TGI (HCT-116 colon): > 100 µM | TGI (TK-10 renal): > 100 µM | TGI (NCI/ADR-RES ovarian): > 100 µM | TGI (OVCAR-8 ovarian): > 100 µM | TGI (CAKI-1 renal): > 100 µM | TGI (NCI-H226 lung): > 100 µM | TGI (SR leukemia): > 100 µM | TGI (RXF 393 renal): > 100 µM | TGI (NCI-H23 lung): > 100 µM | TGI (OVCAR-3 ovarian): > 100 µM | TGI (HL-60(TB) leukemia): > 100 µM | TGI (A549 NSCLC): > 100 µM | TGI (SK-MEL-28 melanoma): > 100 µM | TGI (OVCAR-4 ovarian): > 100 µM | TGI (HOP-92 NSCLC): > 100 µM | TGI (MALME-3M melanoma): > 100 µM | TGI (ACHN renal): > 100 µM | TGI (786-0 renal): > 100 µM | TGI (SNB-75 CNS): > 100 µM | TGI (MOLT-4 leukemia): > 100 µM | TGI (DU-145 prostate): > 100 µM | TGI (EKVX NSCLC): > 100 µM | TGI (BT-549 breast): > 100 µM | TGI (IGROV1 ovarian): > 100 µM | TGI (KM12 colon): > 100 µM | TGI (UACC-62 melanoma): > 100 µM | TGI (NCI-H522 lung): > 100 µM | TGI (LOX IMVI melanoma): > 100 µM | TGI (UO-31 renal): > 100 µM | TGI (HS 578T breast): > 100 µM | TGI (HOP-62 NSCLC): > 100 µM | TGI (SK-OV-3 ovarian): > 100 µM | TGI (COLO 205 colon): > 100 µM | TGI (CCRF-CEM leukemia): > 100 µM | TGI (HCT-15 colon): > 100 µM | TGI (RPMI-8226 leukemia): > 100 µM | TGI (SW-620 colon): > 100 µM
